How the values were obtained:
Assay type in all cases: in vivo
Abutilon theophrasti = assay: Post-emergence herbicidal action; conditions: rated visually after about 3 weeks vs untreated controls
How it was run: (§1)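 Percent activity, judged by eye about 3 weeks after treatment relative to untreated plants, ranges from 0% (as control) to 100% (plants dead). Foliar application at 20 g/ha and less was made at the one-leaf stage using a 600 l/ha aqueous spray containing 0.5% additive.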

Alopecurus myosuroides = assay: Post-emergence herbicidal action; conditions: rated visually after about 3 weeks vs untreated controls
How it was run: as §1

Amaranthus retroflexus = assay: Post-emergence herbicidal action; conditions: rated visually after about 3 weeks vs untreated controls
How it was run: as §1

Avena fatua = assay: Post-emergence herbicidal action; conditions: application rate 20 g/ha, rated visually after about 3 weeks vs untreated controls
How it was run: as §1

Digitaria sanguinalis = assay: Post-emergence herbicidal action; conditions: rated visually after about 3 weeks vs untreated controls
How it was run: as §1

Echinochloa crus-galli = assay: Post-emergence herbicidal action; conditions: rated visually after about 3 weeks vs untreated controls
How it was run: as §1

Lolium rigidum = assay: Post-emergence herbicidal action; conditions: application rate 20 g/ha, rated visually after about 3 weeks vs untreated controls
How it was run: as §1

Matricaria inodora = assay: Post-emergence herbicidal action; conditions: rated visually after about 3 weeks vs untreated controls
How it was run: as §1

Pharbitis purpurea = assay: Post-emergence herbicidal action; conditions: rated visually after about 3 weeks vs untreated controls
How it was run: as §1

Polygonum convolvulus = assay: Post-emergence herbicidal action
How it was run: as §1

Setaria viridis = assay: Post-emergence herbicidal action; conditions: rated visually after about 3 weeks vs untreated controls
How it was run: as §1

Veronica persica = assay: Post-emergence herbicidal action
How it was run: as §1

Viola tricolor = assay: Post-emergence herbicidal action
How it was run: as §1

Oryza sativa = assay: Post-emergence crop plant compatibility; conditions: application rate 5 g/ha
How it was run: (§2)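 Greenhouse crop plants in sandy loam sprayed at one-leaf stage (2-3 weeks after sowing) with WP or EC formulations plus 0.5% additive, 600 l/ha water, at 5 g/ha or 20 g/ha. Damage scored visually after about 3 weeks as % versus untreated controls (100% = plants dead).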

Zea mays = assay: Post-emergence crop plant compatibility; conditions: application rate 5 g/ha
How it was run: as §2

Hordeum murinum = assay: Post-emergence herbicidal action; conditions: application rate 20 g/ha
How it was run: as §1

Stellaria media = assay: Post-emergence herbicidal action; conditions: application rate 5 g/ha, rated visually after about 3 weeks vs untreated controls
How it was run: as §1

Triticum aestivum = assay: Post-emergence crop plant compatibility; conditions: application rate 5 g/ha
How it was run: as §2

SMILES: COCCOC(=O)COc1ncccc1Oc1cc(-n2c(=O)cc(C(F)(F)F)n(C)c2=O)c(F)cc1[N+](=O)[O-] [I.14-1]
- Abutilon theophrasti (efficacy in %) (Abutilon theophrasti; application rate 20 g/ha): 100%
- Alopecurus myosuroides (efficacy in %) (Alopecurus myosuroides; application rate 20 g/ha): 90%
- Amaranthus retroflexus (efficacy in %) (Amaranthus retroflexus; application rate 20 g/ha): 100%
- Avena fatua (efficacy in %) (Avena fatua): 80%
- Digitaria sanguinalis (efficacy in %) (Digitaria sanguinalis; application rate 20 g/ha): 100%
- Echinochloa crus-galli (efficacy in %) (Echinochloa crus-galli; application rate 20 g/ha): 100%
- Lolium rigidum (efficacy in %) (Lolium rigidum): 80%
- Matricaria inodora (efficacy in %) (Matricaria inodora; application rate 20 g/ha): 100%
- Pharbitis purpurea (efficacy in %) (Pharbitis purpurea; application rate 20 g/ha): 100%
- Polygonum convolvulus (efficacy in %) (Polygonum convolvulus; application rate 20 g/ha): 100%
- Setaria viridis (efficacy in %) (Setaria viridis; application rate 20 g/ha): 100%
- Veronica persica (efficacy in %) (Veronica persica; application rate 20 g/ha): 100%
- Viola tricolor (efficacy in %) (Viola tricolor; application rate 20 g/ha): 100%
- Oryza sativa (efficacy in %) (Oryza sativa): 0%
- Zea mays (efficacy in %) (Zea mays): 10%

SMILES: Cn1c(C(F)(F)F)cc(=O)n(-c2cc(Oc3cccnc3OCC(=O)OCC#N)c(Cl)cc2F)c1=O [I.15-176]
- Abutilon theophrasti (efficacy in %) (Abutilon theophrasti; application rate 5 g/ha): 100%
- Alopecurus myosuroides (efficacy in %) (Alopecurus myosuroides; application rate 5 g/ha): 80%
- Amaranthus retroflexus (efficacy in %) (Amaranthus retroflexus; application rate 5 g/ha): 100%
- Avena fatua (efficacy in %) (Avena fatua): 90%
- Digitaria sanguinalis (efficacy in %) (Digitaria sanguinalis; application rate 5 g/ha): 100%
- Echinochloa crus-galli (efficacy in %) (Echinochloa crus-galli; application rate 5 g/ha): 100%
- Hordeum murinum (efficacy in %) (Hordeum murinum): 100%
- Matricaria inodora (efficacy in %) (Matricaria inodora; application rate 20 g/ha): 100%
- Pharbitis purpurea (efficacy in %) (Pharbitis purpurea; application rate 5 g/ha): 100%
- Polygonum convolvulus (efficacy in %) (Polygonum convolvulus; application rate 5 g/ha): 100%
- Setaria viridis (efficacy in %) (Setaria viridis; application rate 5 g/ha): 100%
- Stellaria media (efficacy in %) (Stellaria media): 100%
- Veronica persica (efficacy in %) (Veronica persica; application rate 5 g/ha): 90%
- Viola tricolor (efficacy in %) (Viola tricolor; application rate 5 g/ha): 100%
- Oryza sativa (efficacy in %) (Oryza sativa): 20%
- Triticum aestivum (efficacy in %) (Triticum aestivum): 20%
- Zea mays (efficacy in %) (Zea mays): 20%

SMILES: Cn1c(C(F)(F)F)cc(=O)n(-c2cc(Sc3cccnc3SCC(=O)OCC3CCCO3)c(Cl)cc2F)c1=O (stereo not shown) [I.10-71]
- Abutilon theophrasti (efficacy in %) (Abutilon theophrasti; application rate 5 g/ha): 100%
- Alopecurus myosuroides (efficacy in %) (Alopecurus myosuroides; application rate 5 g/ha): 80%
- Amaranthus retroflexus (efficacy in %) (Amaranthus retroflexus; application rate 5 g/ha): 100%
- Avena fatua (efficacy in %) (Avena fatua): 80%
- Digitaria sanguinalis (efficacy in %) (Digitaria sanguinalis; application rate 5 g/ha): 90%
- Echinochloa crus-galli (efficacy in %) (Echinochloa crus-galli; application rate 5 g/ha): 100%
- Hordeum murinum (efficacy in %) (Hordeum murinum): 80%
- Lolium rigidum (efficacy in %) (Lolium rigidum): 80%
- Matricaria inodora (efficacy in %) (Matricaria inodora; application rate 5 g/ha): 80%
- Pharbitis purpurea (efficacy in %) (Pharbitis purpurea; application rate 5 g/ha): 100%
- Polygonum convolvulus (efficacy in %) (Polygonum convolvulus; application rate 5 g/ha): 100%
- Setaria viridis (efficacy in %) (Setaria viridis; application rate 5 g/ha): 100%
- Stellaria media (efficacy in %) (Stellaria media): 100%
- Veronica persica (efficacy in %) (Veronica persica; application rate 5 g/ha): 90%
- Viola tricolor (efficacy in %) (Viola tricolor; application rate 5 g/ha): 100%
- Oryza sativa (efficacy in %) (Oryza sativa): 20%
- Zea mays (efficacy in %) (Zea mays): 20%
